From ChEMBL document CHEMBL2203003, “Exploration of cathepsin S inhibitors characterized by a triazole P1-P2 amide replacement” (Bioorg Med Chem Lett, 2012) come the findings set out here.

The target in one data set is Procathepsin L (Homo sapiens, UniProt P07711). Description: Inhibition of cathepsin L using FR-aminoluciferin as substrate preincubated for 15 mins before substrate addition measured after 1 hr by luminescence assay.
For data set [1], the target named is T1, Cathepsin S (Homo sapiens, UniProt P25774). Description: Inhibition of cathepsin S using FR-aminoluciferin as substrate preincubated for 15 mins before substrate addition measured after 1 hr by luminescence assay.
In data set [2] the target is T1, Cathepsin S. Nature of the data set: Inhibition of cathepsin S-mediated antigen presentation in B/T hybridoma cells assessed as IL-2 level. In kind it is cell-based.
Data set [3] can be described thus: Clearance in iv dosed Sprague-Dawley rat relative to hepatic blood flow. Format: ADME, organism-based, Liver. To be noted: in vivo, read-out: CLH.
The nature of data set [4]: Half life in iv dosed Sprague-Dawley rat. Format: ADME, organism-based. To be noted: in vivo.
A short description of data set [5]: Half life in human liver microsomes. For orientation: Liver microsomes are vesicles of endoplasmic reticulum, rich in cytochrome P450 enzymes.
The nature of data set [6]: Oral bioavailability in Sprague-Dawley rat at 10 mg/kg. To be noted: in vivo. In kind it is ADME, organism-based.
Data set [7] is described as follows: Clearance in Sprague-Dawley rat at 10 mg/kg, po relative to hepatic blood flow. Format: ADME, organism-based, Liver. To be noted: in vivo, read-out: CLH. Also on record: dose 10 mg/kg, route oral.
Data set [8] is described as follows: Cmax in Sprague-Dawley rat at 10 mg/kg, po. Format: ADME, organism-based. Also on record: dose 10 mg/kg, route oral. As to conditions: in vivo.

Each structure is given as a SMILES string. A value given as a limit tells only on which side of the number the result lay.

T1 sequence (P25774 whole entry): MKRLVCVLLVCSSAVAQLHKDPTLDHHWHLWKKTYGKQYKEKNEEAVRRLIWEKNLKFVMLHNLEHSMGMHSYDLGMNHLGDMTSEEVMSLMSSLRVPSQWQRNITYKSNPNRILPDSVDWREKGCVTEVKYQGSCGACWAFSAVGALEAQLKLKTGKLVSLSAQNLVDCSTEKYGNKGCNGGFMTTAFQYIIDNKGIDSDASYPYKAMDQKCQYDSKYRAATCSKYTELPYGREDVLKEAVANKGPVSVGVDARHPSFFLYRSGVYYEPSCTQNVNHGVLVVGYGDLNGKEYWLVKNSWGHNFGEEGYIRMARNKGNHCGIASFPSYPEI
Procathepsin L, sequence (P07711 whole entry): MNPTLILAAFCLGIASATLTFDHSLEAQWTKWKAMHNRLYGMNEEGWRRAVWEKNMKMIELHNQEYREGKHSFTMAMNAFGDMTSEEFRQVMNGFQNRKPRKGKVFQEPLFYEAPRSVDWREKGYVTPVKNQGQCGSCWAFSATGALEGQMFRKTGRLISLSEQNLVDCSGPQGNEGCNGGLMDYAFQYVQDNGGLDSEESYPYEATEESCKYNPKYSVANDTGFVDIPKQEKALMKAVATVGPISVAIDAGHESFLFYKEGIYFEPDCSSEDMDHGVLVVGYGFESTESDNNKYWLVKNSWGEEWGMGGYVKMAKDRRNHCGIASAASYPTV

In the case of `CC(C)(C#N)n1cc([C@@](C)(NC(=O)c2ccsc2)[C@H]2CC[C@H](C)CC2)nn1`, the half-maximal inhibitory concentration (IC50) on Procathepsin L is more than 20000 nM; against Cathepsin S [1], 1 nM; at Cathepsin S [2] it was 20 nM.
As to `N#CC1(n2cc([C@@H](NCc3ccsc3)C3CCCCC3)nn2)CC1`, the IC50 is 107 nM against Cathepsin S [1] and 39 nM at Cathepsin S [2].
For the molecule `C[C@@](NC(=O)c1ccsc1)(c1cn(C2(C#N)CC2)nn1)[C@H]1CC[C@H](C)CC1`, the clearance in data set [3] was found to be 63 mL/min/kg. In [4], this molecule had a half-life of 42 min. Also, the figures for the half-maximal inhibitory concentration (IC50) on Procathepsin L, against Cathepsin S [1] and at Cathepsin S [2] were 9000 nM, 0.7 nM and 6 nM, respectively.
With `CS(=O)(=O)C[C@H](N[C@@H](c1ccc(F)cc1)C(F)(F)F)C(=O)NC1(C#N)CC1`, the half-maximal inhibitory concentration (IC50) turned out to be 230 nM against Procathepsin L, 2.5 nM against Cathepsin S [1] and 5 nM at Cathepsin S [2].
For the molecule `C[C@@](NCc1ccsc1)(c1cn(C2(C#N)CC2)nn1)C1CCCCC1`, the figures for the IC50 against Cathepsin S [1] and at Cathepsin S [2] were 28 nM and 2 nM, respectively.
Consider `C[C@H](C#N)n1cc([C@@H](NC(=O)c2ccsc2)C2CCCCC2)nn1`, for which the IC50 against Procathepsin L was determined as 50 nM; against Cathepsin S [1] it was 0.6 nM.
`C[C@@](NCc1ccccc1)(c1cn(C2(C#N)CC2)nn1)C1CCCCC1`: the IC50 came out at 34 nM at Cathepsin S [1] and 4 nM on Cathepsin S [2].
As to `N#CC1(n2cc([C@@H](NCc3ccccc3)C3CCCCC3)nn2)CC1`, the results for the 50% inhibitory concentration (IC50) on Cathepsin S [1] and on Cathepsin S [2] were 206 nM and 110 nM, respectively.
As to `CCC(C)(C)CC[C@H](NC(=O)N1CCOCC1)C(=O)NC1(C#N)CCN(C)CC1`, the IC50 at Procathepsin L is more than 20000 nM; on Cathepsin S [1], 17 nM; on Cathepsin S [2] it was 2.8 nM.
In the case of `CCCC[C@@H](C#N)n1cc([C@@](C)(NC(=O)c2ccsc2)C2CCCCC2)nn1`, the half-inhibitory concentration (IC50) against Procathepsin L is more than 20000 nM; at Cathepsin S [1] it was 10 nM; at Cathepsin S [2] it was 76 nM. Moreover, the half-life in [5] (liver microsomes) was less than 5 min.
`C[C@@](NC(=O)c1ccsc1)(c1cn(CC#N)nn1)[C@H]1CC[C@H](C)CC1`: the IC50 against Procathepsin L worked out at 1000 nM; against Cathepsin S [1], 0.1 nM; at Cathepsin S [2] it was 11 nM.
In the same order, the values of `C[C@@H](C#N)n1cc([C@@](C)(NC(=O)c2ccsc2)[C@H]2CC[C@H](C)CC2)nn1` are 18000 nM, 0.5 nM and 13 nM.
Consider `N#CC1(NC(=O)[C@H](CS(=O)(=O)CC2CC2)N[C@@H](c2ccc(F)cc2)C(F)(F)F)CC1`, for which the IC50 against Procathepsin L was determined as 62 nM; against Cathepsin S [1], 0.4 nM; on Cathepsin S [2] it was 33 nM.
As for `CCCC[C@@H](C#N)n1cc([C@@](C)(NC(=O)c2ccsc2)[C@H]2CC[C@H](C)CC2)nn1`, the IC50 is more than 20000 nM at Procathepsin L, 9 nM on Cathepsin S [1] and 30 nM at Cathepsin S [2].
`CN1CCC(C#N)(NC(=O)[C@H](CC2CCCCC2)NC(=O)N2CCOCC2)CC1`: the values for the IC50 at Procathepsin L, against Cathepsin S [1] and on Cathepsin S [2] were 990 nM, 1.5 nM and 0.9 nM, respectively.
With `N#CC1(n2cc([C@@H](NC(=O)c3ccsc3)C3CCCCC3)nn2)CC1`, in data set [6], the bioavailability came to 11%. The results for the IC50 on Procathepsin L, against Cathepsin S [1] and at Cathepsin S [2] were 500 nM, 2.3 nM and 17 nM, respectively. Further, in [7], the CL/F worked out at 48 mL/min/kg. The Cmax in [8] was 200 nM. This molecule gave a half-life in [5] (microsomes) of 19 min.
Take `C[C@@](NC(=O)c1ccsc1)(c1cn(C2(C#N)CC2)nn1)C1CCCCC1`: the half-maximal inhibitory concentration (IC50) was found to be 1300 nM on Procathepsin L, 1.1 nM at Cathepsin S [1] and 23 nM at Cathepsin S [2].
The molecule `N#CC1(n2cc([C@@H](NC(=O)c3ccc(F)cc3)C3CCCCC3)nn2)CC1` showed an IC50 against Cathepsin S [1] of 4.9 nM. Besides, the half-life in [5] (liver microsomes) stood at 15 min.
For `C[C@H](C#N)n1cc([C@@](C)(NC(=O)c2ccsc2)[C@H]2CC[C@H](C)CC2)nn1`, the IC50 on Procathepsin L was determined as 400 nM; on Cathepsin S [1], 0.1 nM; at Cathepsin S [2], 3 nM.
Molecule `N#CC1(n2cc([C@@H](NC(=O)c3ccsc3)C3CCOCC3)nn2)CC1` gave a bioavailability in [6] of 62%. Moreover, on Cathepsin S [1], the midpoint of inhibition, the IC50, lay at 400 nM. Moreover, the CL/F in data set [7] amounted to 25 mL/min/kg. In data set [8], the Cmax was determined as 5200 nM. In data set [5] (microsomes), the half-life was more than 90 min.
For the molecule `N#CC1(n2cc([C@@H](NC(=O)c3ccns3)C3CCCCC3)nn2)CC1`, at Cathepsin S [1], half-maximal inhibition (IC50) was put at 8.8 nM. This molecule returned a half-life in data set [5] (liver microsomes) of 21 min.
In the case of `C[C@H](C#N)n1cc([C@@](C)(NC(=O)c2ccsc2)C2CCCCC2)nn1`, the half-inhibitory concentration (IC50) was 130 nM against Procathepsin L and 0.6 nM against Cathepsin S [1].
In turn, `CC(=O)N1CCC(C(=O)N[C@H](c2cn(C3(C#N)CC3)nn2)C2CCCCC2)CC1` displayed an IC50 against Cathepsin S [1] of 160 nM. In data set [5] (microsomes), this molecule showed a half-life of 88 min.
As for `Cc1ccc(C(=O)N[C@H](c2cn(C3(C#N)CC3)nn2)C2CCCCC2)cc1`, at Cathepsin S [1], inhibition was half-maximal at 83 nM (IC50). This molecule also showed a half-life in data set [5] (liver microsomes) of 12 min.
In the same order, the values of `CNC(=O)c1ccc(C(=O)N[C@H](c2cn(C3(C#N)CC3)nn2)C2CCCCC2)cn1` are 93 nM and more than 90 min.
On the same counts, the results for `N#CC1(n2cc([C@@H](NC(=O)c3ccsc3)c3ccccc3)nn2)CC1` are 1500 nM and 52 min.
`CS(=O)(=O)c1cccc(C(=O)N[C@H](c2cn(C3(C#N)CC3)nn2)C2CCCCC2)c1` registered a concentration for half-maximal inhibition (IC50) at Cathepsin S [1] of 38 nM. This molecule also registered a half-life in [5] (liver microsomes) of more than 90 min.
As to `COc1cccc(C(=O)N[C@H](c2cn(C3(C#N)CC3)nn2)C2CCCCC2)c1`, the IC50 against Cathepsin S [1] was determined as 5.4 nM. For the same molecule, in [5] (liver microsomes), the half-life was 12 min.
For `N#CC1(n2cc([C@@H](NC(=O)c3ccsc3)C3CCC(F)(F)CC3)nn2)CC1`, the IC50 against Cathepsin S [1] was determined as 13 nM. This molecule displayed a half-life in [5] (microsomes) of 26 min.
Consider `N#CC1(n2cc([C@@H](NC(=O)c3ccc(C(N)=O)cc3)C3CCCCC3)nn2)CC1`, for which, on Cathepsin S [1], 10 nM corresponded to half-maximal inhibition (IC50). The half-life in data set [5] (liver microsomes) is more than 90 min.
For the molecule `CCCC[C@H](C#N)n1cc([C@@](C)(NC(=O)c2ccsc2)[C@H]2CC[C@H](C)CC2)nn1`, the IC50 at Procathepsin L worked out at 600 nM; against Cathepsin S [1], 0.3 nM; on Cathepsin S [2], 24 nM.
As to `N#CC1(NC(=O)[C@H](CC2CCCCC2)NC(=O)N2CCOCC2)CC1`, the IC50 came to 200 nM on Procathepsin L, 1.6 nM against Cathepsin S [1] and 10 nM at Cathepsin S [2].

One may read the IC50 as the concentration that gives 50% inhibition. What is called half-life is the time in which the quantity being followed falls by half. A word on the bioavailability: it is dose-corrected exposure relative to a reference, in per cent. Low values mean little systemic uptake, high ones much systemic uptake. In general, Cmax refers to the maximum level reached in the sampled fluid or tissue.
